Results taken from US20140323428A1, “ANTINEURITIC PHARMACEUTICAL COMBINATION AND COMPOSITIONS” (priority 2011, published 2014).
Entries after “also recorded” stand apart in the source; their conditions may differ. Where two headings read alike, the source gives them in different places.

How the values were obtained:
[1] = test system: rats having neuropathic pain; assay: Motor incoordination observed after oral administration in the allodynia study; details: rat, in vivo, 300 mg/kg
Protocol: However, with the higher dose (300 mg/kg) the effect was maintained even for 24 hours.
With the higher dose (30 mg/kg) motor incoordination was observed between 1 and 7 hours, whereas with the 10 mg/kg dose, incoordination was observed between 3 and 4 hours after the administration.

[2] = test system: rats subjected to L5/L6 spinal nerve ligation; assay: Tactile allodynia (von Frey filaments, 50% withdrawal threshold, % MPE) in rats with L5/L6 spinal nerve ligation; format: in vivo, rat; details: for ED50: Rattus norvegicus, read-out: ED50 of the anti-allodynic effect, antiepileptic alone; for Effect on 50% withdrawal threshold (anti-allodynic effect): oxcarbazepine 30-300 mg/kg, pregabalin 0.3-30 mg/kg, vitamin B12 0.06-6 mg/kg
Protocol: 6-week-old female Wistar rats having a body weight of 140-160 g, were used. Each rat was studied only once and sacrified. The Guidelines for pain investigations in animals (Zimmermann, 1983) were used in all the experiments.
The rats were anesthesized via intraperitoneal route with a mixture of ketamine/xylazine (45 and 12 mg/kg, respectively). A partial incision was carried out in the left transverse lumbar area for isolating and ligating the L5 and L6 left spinal nerves with a silk suture 6-0. The ligation was carried out next to the formation of the sciatic nerve and distal to the dorsal root ganglion. Subsequently, the wound was sutured. Conduct tests were performed 12 days after surgery.
For the determination of tactile allodynia, the rats were placed in individual plastic boxes having a stainless steel metallic mesh bottom during 30 minutes, for their adaptation. The tactile threshold test is based in the induction of the animal's left paw withdrawal to gentle mechanical stimuli. The paw was stimulated by applying mechanical force using different Von Frey filaments ranging from 2.36 g to 6.65 g. The thinner the filament's thickness is, the fewer force is applied, and viceversa. For stimulating the animal's paw, the intermediate filament (3.41 g) was firstly used. The left paw elevation in ten seconds was taken as a positive response and a stimulus with a lower caliber filament was applied. If no withdrawal of the animal's paw occurred, it was considered as a negative response, then a stronger stimulus was applied with the next filament until the animal responded.
Once a change in the response took place, either positive or negative, the stimulation was carried out 4 more times, taking a series of 6 patterns of positive and negative responses (Chaplan et al., 1994). The response patterns were tabulated and the 50% response threshold was calculated by using the Dixon formula (1980).
Graphs of the 50% withdrawal threshold (g) as a function of time (h) were constructed from the obtained data
50% withdrawal threshold (g)=(10^[Xf+Kδ])/10,000
From the data of the 50% withdrawal threshold, bar graphs and dose response curves were constructed for the percentage of anti-allodynic effect represented as the percentage of the maximum possible effect (% MPE), by using the following formula:
% MPE=[(AUC drug−AUC vehicle/(AUC sham−AUC vehicle)]×100
In both curves the value of the ED50 was determined.

plasmatic proteins = details: cited from earlier work
[3] = cited from earlier work
patients = details: doses of from 300 to 600 mg; cited from earlier work
[4] = test system: tactile allodynia induced by the linkage of the spinal nerves L5 and L6; details: cited from earlier work

Row | Compound | Motor incoordination, time window after administration [1] [h] | ED50 ([2]; oral, single agent, from dose-response curves) [mg/kg] | Time of maximum anti-allodynic effect ([2]; oral) | Time for which the anti-allodynic effect was maintained ([2]; oral, higher dose 300 mg/kg) [h] | Effect on 50% withdrawal threshold (anti-allodynic effect) ([2]; oral) | Binding to plasmatic proteins (plasmatic proteins) | Bioavailability ([3]; after an oral dose) [%] | Time of maximum plasma peaks ([3]; after an oral dose) | Excreted by the urinary route ([3]; in vivo) | Half-life of elimination ([3]; in vivo) [h] | Metabolism ([3]; in vivo) | Oral absorption ([3]; oral) | ED50 ([2]; po) [mg/kg] | Analgesic effect at 24 hours ([2]; oral, 24 hours after administration) | Adverse reaction: dizziness (patients) | Adverse reaction: drowsiness (patients) | Analgesic effect at 8 hours ([2]; oral, 8 hours after administration) | Effect on tactile allodynia [4]
1 | NC(=O)N1c2ccccc2CC(=O)c2ccccc21 [oxcarbazepine] | 2 to 8 | 78.8 | about 3 hours | ≥ 24 | dose-dependent way; also recorded: significantly increased |  |  |  |  |  |  |  |  |  |  |  |  | 
2 | CC(C)C[C@H](CN)CC(=O)O [pregabalin] |  |  | about 2 hours |  | dose-dependent way; also recorded: significantly increased | does not link to plasmatic proteins | 90 | an hour and a half | about 98% | 6.3 | minimal metabolism | quickly absorbed | 3.3 | no longer observed | 27-46% | 15-25% |  | 
3 | cyanocobalamin [vitamin B12] |  |  | about 3 hours |  | significantly increased |  |  |  |  |  |  |  |  |  |  |  | no longer observed | capable of reducing tactile allodynia
